Legend:
[1] = Calcium titration of purified CaMPARI protein, fluorescence in plate reader; assay type: binding
Experimental: (§1) This Example describes procedures performed to characterize the in vitro properties of the fluorescent proteins. First, CaMPARI protein was expressed from the pRSET plasmid (Life Technologies, Carlsbad, Calif.) in T7 Express E. coli cells cultured for 36 h in 100 mL of autoinduction medium supplemented with 100 mg/L ampicillin. Cell pellets were lysed using B-PER (Pierce, Rockford, Ill.) supplemented with 1 mg/mL lysozyme and 1 min. of sonication. After removing insoluble material by centrifugation, CaMPARI protein was purified by immobilized metal affinity chromatograpy on nickel-charged Profinity resin (Bio-Rad, Hercules, Calif.), washing with 10 mM imidazole and eluting with 100 mM imidazole.
(§2) Using these samples, calcium titrations were used to calculate an apparent affinity of the protein for calcium ions. Aliquots of purified CaMPARI protein were mixed with Ca-EGTA solutions calculated to contain a range of free Ca^2+ ions (Life Technologies) and fluorescence was measured in a plate reader. Furthermore, to observe the photoconversion rate difference+/−calcium, purified CaMPARI in 5 mM CaCl2 or 5 mM EGTA were photoconverted using a 400 nm LED array and green and red fluorescence was measured at various time points to fit an exponential rate to the appearance of red fluorescence or the disappearance of green fluorescence.

[2] = Photoconversion rate difference +/- calcium of purified CaMPARI (400 nm LED array); details: purified protein, 5 mM CaCl2 vs 5 mM EGTA
Experimental: as §1, §2

[3] = Fluorescence of purified CaMPARI green and red forms +/- calcium; details: purified protein
Experimental: as §1, §2

[4] = test system: cultured rat hippocampal neurons; assay: Photoconversion with field electrode stimulation in neurons expressing CaMPARI; assay type: cell-based; details: 83 Hz action potentials at the beginning of a 2 s photoconversion pulse
Experimental: First, cultured rat hippocampal neurons were prepared and infected with lentivirus expressing CaMPARI from the human synapsin promoter. The neurons were imaged ten days after infection with a 10× objective before and after various combinations of photoconversion and field electrode-induced action potential firing. Prior to imaging, the neuron cultures were washed with imaging buffer and spontaneous activity was blocked with a drug mix.
Following a 2 s pulse of photoconversion light (1.5 W/cm^2) to CaMPARI-expressing neurons, there was no significant decrease in green fluorescence and a small amount of red fluorescence was visible (FIG. 13A). […] Repeated exposures of CaMPARI-expressing neurons to shorter photoconversion light pulses (0.5 s) led to increasing amounts of red fluorescence signal (FIG. 16A) and red/green ratio (two left bars in FIG. 16B), but the ratio of red-to-green photoconversion between 80 Hz field stimulated and unstimulated neurons remained approximately constant (right-most bars in FIG. 16B). Field electrode stimulation of CaMPARI-expressing neurons (without application of photoconversion light) led to transient decreases in the green fluorescence signal, proportional to the number of induced action potentials (FIG. 17).

[5] = Calcium titration of CaMPARI M13-domain variants, sigmoidal fit; assay type: binding; details: dissociation constant for calcium, sigmoidal fit to calcium titration data
Experimental: (§3) Other CaMPARI variants were constructed and there include V398L, W391F+V398L, W391F, W391L, V398T, G395D, W391Y, W391Y+V398T, V398D, W391F+G395D, W391F+V398H. The variants were made based on substitutions within the M13 domain of CaMPARI that alter the affinity, cooperativity and kinetics and calcium binding. The magnitude of fluorescence change was similar for all variants. Dissociation constants for calcium (Kd) and Hill coefficients were determined from a sigmoidal fit to calcium titration data. Kinetics of fluorescence decay upon calcium release were determined by rapid mixing with EGTA in a stopped-flow device.

[6] = Kinetics of fluorescence decay upon calcium release, rapid mixing with EGTA in stopped-flow device; assay type: binding
Experimental: as §3

CaMPARI v1: isolated polypeptide comprising CaM, EosFP, and M13, SEQ ID NO: 1; Calcium-Modulated Photoactivatable Ratiometric Integrator
Kd ([1]; purified protein, without N-terminal NES, estimated from fluorescence change with increasing calcium, read-out: dissociation constant (Kd)): 0.13 µM | Kd ([1]; with nuclear export signal (NES) added to the N-terminus, read-out: Kd): 0.106 µM | faster green-to-red photoconversion rate in the presence of calcium [2]: 29 fold | green form less fluorescent in the presence of calcium ([3]; green form): 8 fold | red form less fluorescent in the presence of calcium ([3]; red form): 34 fold | more green-to-red photoconversion for 160 action potentials relative to 0 [4]: up to 12 fold | Kd [5]: 0.111 µM | koff [6]: 0.25 s⁻¹
